Legend:
Type in all cases: cell-based
[1] = test system: COLO829 melanoma cell line; experiment: MTT proliferation assay, COLO829; conditions: 50 uM
Procedure: (§1) FIG. 3A-3D: Benzamil reduce invasion and proliferation of melanoma cell lines expressing increased Rac1GTP. […] Stimulation with Benzamil at 50 uM was not toxic, but reduced proliferation in COLO829,MM485,CHL1 melanoma cell lines similar to V12 Rac1 mutant primary melanocytes FIG. 3D.
(§2) Benzamil reduce invasion and proliferation of melanoma cell lines expressing increased Rac1GTP. […] Stimulation with Benzamil at 50 μM was not toxic, but reduced proliferation in COLO829,MM485,CHL1 melanoma cell lines similar to V12 Rac1 mutant primary melanocytes.
(§3) MTT proliferation assay. 25000 melanocytes were plated in each well in a 96 well plate, and incubated with 100 ul DMEM with 10% FBS 1% AA for 24 hours. 10 ul MTT reagent (MTT proliferation assay, ATCC, Manassas, US) was added for 4 hours, 100 ul detergent was added to each well for 2 hours., and absorbance read at 570 nm (Spectramax M5, Molecular Devices, US), normalized to cell-free control absorbance.

CHL1 melanoma cell line = experiment: MTT proliferation assay, CHL1; conditions: 50 uM
Procedure: as §1, §2, §3

MM485 melanoma cell line = experiment: MTT proliferation assay, MM485; conditions: 50 uM
Procedure: as §1, §2, §3

[2] = test system: V12 Rac1 mutant primary foreskin-derived melanocytes; experiment: MTT proliferation assay, V12 Rac1 melanocytes
Procedure: FIG. 1A-1C: Benzamil inhibits V12 Rac1 driven melanocyte invasion and proliferation in vitro. […] Invasion was abolished in conditions treated with 50 uM Benzamil (FIG. 1A, FIG. 1B).
Invasion was abolished in conditions treated with 50 μM Benzamil.
as §3

`NC(=NCc1ccccc1)NC(=O)c1nc(Cl)c(N)nc1N` [Benzamil, benzyl amiloride] was tested, and the toxicity [1] was “not toxic”, the toxicity (CHL1 melanoma cell line) was “not toxic” and the toxicity (MM485 melanoma cell line) was “not toxic”. The “Dosage tolerated in vitro (assessed by detectable proliferation)” value [2] was “up to 100 uM”.
